# Reference: patent US20230115640A1, “BLASTOCYST-LIKE STRUCTURES FROM EXTENDED PLURIPOTENT STEM CELLS” (Salk Institute for Biological Studies, priority 2019, published 2023)
# Where “and” joins values, the source holds several entries; their conditions need not be identical. Identical values can stand only once.
# B1: Wnt-3a (protein, UniProt P56704 19-352, looked up)
# Protein Wnt-3a: SYPIWWSLAVGPQYSSLGSQPILCASIPGLVPKQLRFCRNYVEIMPSVAEGIKIGIQECQHQFRGRRWNCTTVHDSLAIFGPVLDKATRESAFVHAIASAGVAFAVTRSCAEGTAAICGCSSRHQGSPGKGWKWGGCSEDIEFGGMVSREFADARENRPDARSAMNRHNNEAGRQAIASHMHLKCKCHGLSGSCEVKTCWWSQPDFRAIGDFLKDKYDSASEMVVEKHRESRGWVETLRPRYTYFKVPTERDLVYYEASPNFCEPNPETGSFGTRDRTCNVSSHGIDGCDLLCCGRGHNARAERRREKCRCVFHWCCYVSCQECTRVYDVHTCK
# notes: Wnt agonist protein
# Columns and labels:
# [1] = tested on: mouse EPS cell aggregates; experiment: EPS-blastoid formation efficiency (blastocyst-like structures / total cell aggregates) in AggreWell 3D differentiation; type: cell-based; conditions: for Nblastoid/Ntotal (%), EPS-blastoid efficiency with treatment of Wnt antagonists: XAV939 5 μM or IWR-1-endo 10 μM added to medium at day 1, five days in blastoid induction medium; for EPS-blastoids formation (effect of WNT antagonists, in words): blastoid induction medium supplemented with antagonist
# Excerpt: To further improve the differentiation conditions, different growth factors, cytokines, and small molecules were included to identify condition(s) that enable the generation of structures mimicking blastocysts (EPS-blastoids), which contain a cavity and an inner cell mass. […] Using this optimized condition, EPS-blastoids consistently emerged three days after cell seeding (FIG. 1D). EPS-blastoids continued to enlarge, reaching an early blastocyst-like size at around day five or day six. To quantify the efficiency of EPS-blastoid formation, the total number of blastocyst-like structures were counted, with this count divided it by the total number of cell aggregates.
# EPS colonies were dissociated into single cells by incubation with TrypLE (Thermo Fisher Scientific, 12604-013). Cell resuspension was transferred into a 0.1% gelatin-coated plate and incubated at 37° C. for 30 min to allow irradiated MEF cells attach to the plate. The supernatant containing the EPS cells were collected, filtered through a 40 μm cell strainer, and counted using the TC-10 counter (Bio-Rad, 1450001). AggreWell 400 (STEMCELL Technologies, 34415) was prepared following the manufacturer's instructions. EPS-blastoid basal medium is composed of 25% TSC basal medium (see above), 25% N2B27 basal medium (see above), and 50% KSOM (see above). In some experiments, M16 (Sigma-Aldrich, M7292) was used to replace KSOM. Approximately 6,000 cells (five cells per microwell for 1200 microwells) were resuspended in EPS-blastoid basal medium supplemented with 2 μM ROCK inhibitor Y-27632 (Reagents Direct, 53-B80-50), 12.5 ng/ml rhFGF4 (R&D, 235F4025), 0.5 μg/ml Heparin (Sigma-Aldrich, H3149), 3 μM GSK3 inhibitor CHIR99021 (Reagents Direct, 27-H76), 5 ng/ml BMP4 (Proteintech, HZ-1040), and 0.5 μM A83-01 (Axon Medchem, 1421) and seeded into one well of the 24-well AggreWell plate. The plate was centrifuged at 300g for one minute and transferred into an incubator. The day of cell seeding was counted as day 0 of the process. Medium was removed 24 h later (day 1) and replaced with fresh medium without Y-27632. Additional medium change is optional for the rest of the EPS-blastoid formation process. Starting from day 4, blastoids were manually picked up using a mouth pipette (Sigma-Aldrich, A5177) under a stereomicroscope for analysis or downstream experiments. For testing of the effect of antagonists or inhibitors on EPS-blastoid induction, chemicals were added to the medium at day 1. XAV939 (5 μM; Tocris, 3748) or IWR-1-endo (10 μM; STEMCELL Technologies, 72562) was used to inhibit Wnt signaling. Verteporfin (2 μM; Tocris, 5305) was used to inhibit YAP/TEAD interaction. For testing whether a single EPS cell forms into a blastoid, WT cells and Puromycin+/mcherry+ cells were mixed at a ratio of 10:1 and seeded onto Aggrewell 400 as stated above. Puromycin (0.25 μg/ml; InvivoGen, ant-pr-1) was added to the medium 24 hours later to eliminate helper cells gradually.
# [2] = tested on: EPS cells; experiment: EPS cell survival on the day of seeding; type: cell-based, mouse; conditions: treated on the day of seeding
# [3] = tested on: mouse ESCs; conditions: He et al., 2008; cited from earlier work
molecule,measurement,setting,value
O=C(Nc1cccc2cccnc12)c1ccc(N2C(=O)[C@@H]3[C@H](C2=O)[C@@H]2C=C[C@H]3C2)cc1 [IWR-1-endo],"Nblastoid/Ntotal (%), EPS-blastoid efficiency with treatment of Wnt antagonists",[1]; per experiment,0.28% and 0.41% and 1.23% and 0.81% and 0.42%
same,"EPS-blastoids formation (effect of WNT antagonists, in words)",[1],significantly inhibited
Oc1nc(-c2ccc(C(F)(F)F)cc2)nc2c1CSCC2 [XAV939],"Nblastoid/Ntotal (%), EPS-blastoid efficiency with treatment of Wnt antagonists","[1]; per experiment, listed as XVA939",0.3% and 0.28% and 0.45% and 0.41% and 0.8%
same,"EPS-blastoids formation (effect of WNT antagonists, in words)",[1],significantly inhibited
C[C@@H](N)[C@H]1CC[C@H](C(=O)Nc2ccncc2)CC1 [Y-27632],cell survival of EPS cells,[2],enhanced cell survival
verteporfin [VP],"Nblastoid/Ntotal (%), EPS-blastoid efficiency with treatment of YAP-TEAD inhibitor","[1]; verteporfin 2 μM added to medium at day 1, five days of blastoid induction, per experiment",1.43% and 0.36% and 0.87% and 1.05%
B1,CDX2 (trophoblast transcription factor) expression in mouse ESCs,[3],transiently up-regulates CDX2
